Laboratory results published in ChEMBL document CHEMBL5579835, “Fluorescent octahydrophenazines as novel inhibitors against herpes simplex viruses” (Eur J Med Chem, 2024).
Calls of active or inactive are those of the source. No cut-off for these calls is given here.

Columns and labels:
[1] = test system: Human alphaherpesvirus 1; assay: Antiviral activity against HSV-1 infected in African green monkey Vero cells assessed as reduction in viral growth by measuring relative cell viability at 20 uM incubated for 72 hrs by MTT assay; assay type: functional
[2] = Fluorescence property of compound in crystal assessed as maximum emission wavelength in presence of fluorescein by spectrophotometric analysis; assay type: physicochemical
[3] = Fluorescence property of compound in cyclohexane assessed as maximum emission wavelength in presence of fluorescein by spectrophotometric analysis; assay type: physicochemical
[4] = Fluorescence property of compound in H2O assessed as fluorescence quantum yield in presence of fluorescein by spectrophotometric analysis; assay type: physicochemical
[5] = Fluorescence property of compound in crystal assessed as fluorescence quantum yield in presence of fluorescein by spectrophotometric analysis; assay type: physicochemical
[6] = Fluorescence property of compound in H2O assessed as maximum emission wavelength in presence of fluorescein by spectrophotometric analysis; assay type: physicochemical
[7] = Fluorescence property of compound in cyclohexane assessed as fluorescence quantum yield in presence of fluorescein by spectrophotometric analysis; assay type: physicochemical
[8] = Drug accumulation in African green monkey Vero cells assessed as subcellular localization in endoplasmic reticulum at 20 uM incubated for 1 to 24 hr by Me-THP-Naph staining based confocal scanning laser microscopic analysis; assay type: ADME, cell-based; conditions: chlorocebus sabaeus, time 1-24 hrs
[9] = test system: Human alphaherpesvirus 1; assay: Antiviral activity against HSV-1 infected in African green monkey Vero cells assessed as reduction in viral growth by measuring relative cell viability at 5 uM incubated for 72 hrs by MTT assay; assay type: functional
[10] = test system: Human alphaherpesvirus 1; assay: Antiviral activity against HSV-1 infected in African green monkey Vero cells assessed as downregulation of viral gD mRNA expression at 5 to 20 uM by RT-qPCR analysis; assay type: functional, organism-based; conditions: dose 5-20 µM
[11] = test system: Human alphaherpesvirus 2; assay: Antiviral activity against HSV-2 infected in African green monkey Vero cells assessed as reduction in viral growth incubated for 72 hrs by MTT assay; assay type: functional, organism-based; conditions: Human alphaherpesvirus 2, Vero
[12] = test system: Human alphaherpesvirus 1; assay: Antiviral activity against HSV-1 infected in African green monkey Vero cells assessed as downregulation of viral gD protein expression at 5 to 20 uM by Western blotting analysis; assay type: functional, organism-based; conditions: dose 5-20 µM
[13] = test system: Human alphaherpesvirus 1; assay: Antiviral activity against HSV-1 infected in African green monkey Vero cells assessed as reduction in viral growth incubated for 72 hrs by MTT assay; assay type: functional, organism-based; conditions: Human alphaherpesvirus 1, Vero
[14] = test system: Human alphaherpesvirus 2; assay: Antiviral activity against ACV-resistant HSV-2 infected in African green monkey Vero cells assessed as reduction in viral growth incubated for 72 hrs by MTT assay; assay type: functional, organism-based; conditions: Human alphaherpesvirus 2, Vero
[15] = test system: Human alphaherpesvirus 1; assay: Antiviral activity against HSV-1 infected in African green monkey Vero cells assessed as protection of cellular morphology incubated for 24 hrs by CPE based microscopic analysis; assay type: functional, organism-based
[16] = Cytotoxicity against human HEK293T cells incubated for 48 hrs by MTT assay; assay type: toxicity, cell-based, HEK-293T
[17] = test system: Human alphaherpesvirus 2; assay: Antiviral activity against HSV-2 infected in African green monkey Vero cells assessed as protection of cellular morphology incubated for 24 hrs CPE based microscopic analysis; assay type: functional, organism-based
[18] = test system: Human alphaherpesvirus 1; assay: Antiviral activity against HSV-1 infected in African green monkey Vero cells assessed as downregulation of viral gD mRNA expression at 20 uM pre-infected with virus followed by compound treatment by RT-qPCR analysis; assay type: functional, organism-based
[19] = test system: Human alphaherpesvirus 1; assay: Antiviral activity against HSV-1 infected in African green monkey Vero cells assessed as downregulation of viral gD protein expression at 20 uM measured after 2 hrs by Western blotting analysis; assay type: functional, organism-based
[20] = test system: Human alphaherpesvirus 1; assay: Antiviral activity against HSV-1 infected in African green monkey Vero cells assessed as downregulation of viral ICP8 protein expression at 20 uM pre-treated with compound for 1 hr followed by viral infection by Western blotting analysis; assay type: functional, organism-based
[21] = test system: Human alphaherpesvirus 1; assay: Antiviral activity against HSV-1 infected in African green monkey Vero cells assessed as downregulation of viral gD mRNA expression at 20 uM pre-treated with compound for 1 hr followed by viral infection by RT-qPCR analysis; assay type: functional, organism-based
[22] = test system: Human alphaherpesvirus 1; assay: Antiviral activity against HSV-1 infected in African green monkey Vero cells assessed as reduction in viral plaque formation at 20 uM pre-treated with compound for 36 to 48 hrs followed by viral infection by crystal violet staining based assay; assay type: functional, organism-based; conditions: time 36-48 hrs
[23] = test system: Human alphaherpesvirus 1; assay: Antiviral activity against HSV-1 infected in African green monkey Vero cells assessed as downregulation of viral gD mRNA expression incubated for 48 hrs by RT-qPCR analysis; assay type: functional, organism-based
[24] = test system: Human alphaherpesvirus 1; assay: Antiviral activity against HSV-1 infected in African green monkey Vero cells assessed as downregulation of viral VP16 mRNA expression at 20 uM incubated under co-plus post treatment condition for 1 hr by RT-qPCR analysis; assay type: functional, organism-based
[25] = test system: Human alphaherpesvirus 1; assay: Antiviral activity against HSV-1 infected in African green monkey Vero cells assessed as downregulation of viral VP16 mRNA expression at 20 uM pre-infected with virus followed by compound treatment by RT-qPCR analysis; assay type: functional, organism-based
[26] = test system: Human alphaherpesvirus 2; assay: Antiviral activity against ACV-resistant HSV-2 infected in African green monkey Vero cells assessed as downregulation of viral gD protein expression at 20 uM incubated for 48 hrs by Western blotting analysis; assay type: functional, organism-based
[27] = test system: Human alphaherpesvirus 1; assay: Antiviral activity against HSV-1 infected in African green monkey Vero cells assessed as downregulation of viral gD protein expression at 20 uM pre-treated with compound for 1 hr followed by viral infection by Western blotting analysis; assay type: functional, organism-based
[28] = test system: Human alphaherpesvirus 1; assay: Antiviral activity against HSV-1 infected in African green monkey Vero cells assessed as downregulation of viral VP16 mRNA expression incubated for 48 hrs by RT-qPCR analysis; assay type: functional, organism-based
[29] = Cytotoxicity against human HEK293T cells assessed as cell viability at 80 uM incubated for 48 hrs by MTT assay relative to control; assay type: toxicity, cell-based, HEK-293T; conditions: read-out: Activity
[30] = test system: Human alphaherpesvirus 1; assay: Antiviral activity against HSV-1 infected in African green monkey Vero cells assessed as downregulation of viral VP16 mRNA expression at 20 uM pre-treated with compound for 1 hr followed by viral infection by RT-qPCR analysis; assay type: functional, organism-based
[31] = test system: Human alphaherpesvirus 1; assay: Antiviral activity against HSV-1 infected in African green monkey Vero cells assessed as downregulation of viral gD mRNA expression at 20 uM incubated under co-plus post treatment condition for 1 hr by RT-qPCR analysis; assay type: functional, organism-based
[32] = test system: HEK-293T; assay: Cytotoxicity against human HEK293T cells at 5 to 80 uM incubated for 48 hrs by MTT assay; assay type: toxicity, cell-based; conditions: dose 5-80 µM
[33] = test system: Human alphaherpesvirus 1; assay: Antiviral activity against HSV-1 infected in African green monkey Vero cells assessed as downregulation of viral gD protein expression at 10 uM incubated for 48 hrs by Western blotting analysis; assay type: functional, organism-based
[34] = test system: Human alphaherpesvirus 1; assay: Antiviral activity against HSV-1 infected in African green monkey Vero cells assessed as downregulation of viral ICP8 protein expression at 20 uM measured after 2 hrs by Western blotting analysis; assay type: functional, organism-based
[35] = test system: Human alphaherpesvirus 1; assay: Antiviral activity against HSV-1 infected in African green monkey Vero cells assessed as downregulation of viral gD mRNA expression at 20 uM incubated under co-treatment condition for 1 hr by RT-qPCR analysis; assay type: functional, organism-based
[36] = test system: Human alphaherpesvirus 1; assay: Antiviral activity against HSV-1 infected in African green monkey Vero cells assessed as downregulation of viral VP16 mRNA expression at 20 uM incubated under co-treatment condition for 1 hr by RT-qPCR analysis; assay type: functional, organism-based

With `CN1CCOc2c(C#N)c3c(c(C#N)c21)N(C)C1CCCCC1N3C` (racemic) the Activity [1] was 4%.
In the case of `CN1c2c(C#N)c(F)c(N3CCCCC3)c(C#N)c2N(C)C2CCCCC21` (racemic), the Activity [1] is reported as 6%.
Molecule `N#Cc1c(F)c(F)c(C#N)c2c1NC1CCCCC1N2` (racemic) has an Activity [1] of 7%.
Molecule `CN1c2c(C#N)c(F)c(F)c(C#N)c2N(C)[C@@H]2CCCC[C@H]21` has an Activity [2] of 560 nm, an Activity [3] of 515 nm and an Activity [4] of 57.1%. For the same molecule, the Activity [5] was 57.3%, the Activity [1] was 8% and the Activity [6] was 555 nm. The Activity [7] was 90.3% and the Drug uptake [8] was “Active”.
With `CN1c2c(C#N)c(F)c(N3CCOCC3)c(C#N)c2N(C)C2CCCCC21` (racemic) the Activity [1] was 8%.
Molecule `CN1c2c(C#N)c3c(c(C#N)c2N(C)C2CCCCC21)OCCO3` (racemic) has an Activity [1] of 0%.
In the case of `CN1c2c(F)c(C#N)c(C#N)c(F)c2N(C)C2CCCCC21` (racemic), the Activity [1] is reported as 3%.
`Nc1nc2c(ncn2COCCO)c(=O)[nH]1` [ACYCLOVIR] gave an Activity [9] of 81%.
For `CN1c2c(C#N)c(F)c(N3CCCC3)c(C#N)c2N(C)C2CCCCC21` (racemic), the Activity [1] was 9%.
With `CN1c2c(C#N)c(F)c(F)c(C#N)c2N(C)[C@H]2CCCC[C@@H]21` the Activity [2] was 560 nm, the Activity [3] was 515 nm and the Activity [4] was 59.1%. For the same molecule, the Activity [5] was 56.9%, the Activity [10] was “Active” and the EC50 [11] was 5.8 µM. For the same molecule, the Activity [1] was 40%, the Activity [6] was 555 nm and the Activity [7] was 92.3%. For the same molecule, the Drug uptake [8] was “Active”, the Activity [12] was “Active” and the EC50 [13] was 4.1 µM. For the same molecule, the EC50 [14] was 7.9 µM.
For `CN1c2c(F)c(C#N)c(F)c(C#N)c2N(C)C2CCCCC21` (racemic), the Activity [1] was 0%.
Molecule `CN1c2c(C#N)c3c(c(C#N)c2N(C)C2CCCCC21)OCCN3` (racemic) has an Activity [1] of 1%.
In the case of `CN1c2c(C#N)c(F)c(F)c(C#N)c2N(C)C2CCCCC21` (racemic), the Activity [2] is reported as 558 nm, the Activity [15] is reported as “Dose-Dependent Effect” and the CC50 at 48 h [16] is reported as over 100 µM. For the same molecule, the Activity [17] was “Dose-Dependent Effect”, the Activity [18] was “Active” and the Activity [19] was “Active”. The Activity [20] was “Active”, the Activity [21] was “inactive” and the Activity [22] was “Active”. The Activity [3] was 515 nm, the Activity [4] was 56.2% and the Activity [5] was 54.4%. The Activity [23] was “Dose-Dependent Effect”, the Activity [24] was “Active” and the EC50 [11] was 11 µM. For the same molecule, the Activity [25] was “Active”, the Activity [1] was 39% and the Activity [26] was “Active”. The Activity [27] was “Active”, the Activity [28] was “Dose-Dependent Effect” and the viability at 48 h, 80 µM [29] was 100%. The Activity [30] was “inactive”, the Activity [31] was “Active” and the Activity [32] was “Non-Toxic”. The Activity [33] was “Active”, the Activity [34] was “Active” and the Activity [35] was “inactive”. The Activity [6] was 555 nm, the Activity [7] was 91.6% and the Drug uptake [8] was “Active”. The Activity [36] was “Active”, the EC50 [13] was 9.2 µM and the EC50 [14] was 14.9 µM.
For `CN(C)c1c(F)c(C#N)c2c(c1C#N)N(C)C1CCCCC1N2C` (racemic), the Activity [1] was 5%.
